# According to patent US4593104A, “2-halo-N-(azole-1-yl-methyl)-substituted acetanilides” (BASF Aktiengesellschaft, priority 1976, dated 1986):
# What was measured:
# Arach. hypog. [1] = experiment: tolerance by various oil crops in the greenhouse (Table 8), % damage; assay type: in vivo, Arachis hypogaea
# Excerpt: (§1) The vessels employed were plastic flowerpots having a volume of 300 cm^3; the substrate was a sandy loam containing about 1.5% humus. The seeds of the test plants (see Table 1) were sown shallow, and separated according to species. In the case of Cyperus esculentus, pregerminated tubers were planted. In the preemergence treatment, the active ingredients were then immediately applied to the surface of the soil. They were suspended or emulsified in water as the vehicle, and sprayed through atomizing nozzles. After the agents had been applied, the vessels were lightly sprinkler-irrigated to set germination and growth going, and to activate the chemical agents. The vessels were then covered with transparent plastic hoods until the plants had taken root. This cover ensured uniform germination of the test plants (to the extent that this was not impaired by the chemicals), and prevented readily volatile substances from evaporating.
# (§2) For postemergence treatment, the plants were first grown to a height of from 3 to 10 cm, depending on their habit, before treated. Hoods were not placed on the pots. The experiments were set up in the greenhouse, hotter areas (25° to 40° C.) being preferred for heat-loving species, and 15° to 30° C. for plants from moderate climates. The experiments were carried out for from 4 to 6 weeks. During this period the plants were tended and their reaction to the various treatments was assessed. The following tables contain the substances investigated, the application rates in kg/ha of active ingredient, and the test plant species. Assessments were made on a 0 to 100 scale, 0 denoting no damage or normal emergence, and 100 denoting no emergence or complete destruction of at least the visible plant parts.
# Brassica napus [2] = experiment: as above; assay type: in vivo
# Excerpt: as §1, §2
# Glyc. max [3] = experiment: as above; assay type: in vivo, Glycine max; conditions: varieties: Dare, Lee 68, SRF 450
# Excerpt: as §1, §2
# Carth. tinct. = experiment: as above; assay type: in vivo, Carthamus tincotius
# Excerpt: as §1
# For postemergence treatment, the plants were first grown to a height of from 3 to 10 cm, depending on their habit, before treated. Hoods were not placed on the pots. The experiments were set up in the greenhouse, hotter areas (25° to 40° C.) being preferred for heat-loving species, and 15° to 30° C. for plants from moderate climates. […] During this period the plants were tended and their reaction to the various treatments was assessed. […]
# Solan. nigrum. = experiment: herbicidal action in the greenhouse (Table 8), % damage; assay type: in vivo
# Excerpt: as §1, §2
# Amar. retro. [4] = experiment: as above; assay type: in vivo
# Excerpt: as §1, §2
# Seta. spp. = experiment: as above; assay type: in vivo
# Excerpt: as §1, §2
# Arach. hypog. [5] = experiment: preemergence treatment in the greenhouse, % damage; assay type: in vivo, Arachis hypogaea; conditions: 1.0 kg/ha
# Excerpt: as §1, §2
# Cyp. diff. = experiment: preemergence treatment in the greenhouse, % damage; assay type: in vivo
# Outline: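 Greenhouse herbicide test at rates in kg/ha a.i. Pre-em soil spray right after sowing, then irrigation and hooding; post-em on 3–10 cm plants. Rated 0–100 over 4–6 weeks.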
# Echin. c.g. [6] = experiment: preemergence treatment in the greenhouse, % damage; assay type: in vivo; conditions: 1.0 kg/ha
# Outline: (§3)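 Plants in humus-poor sandy loam (~1.5%) received kg/ha doses of active as aqueous spray. Preemergence sprays preceded irrigation and hooding until rooting; postemergence sprays, without hoods, hit 3–10 cm plants. Injury was assessed 0–100 across 4–6 weeks.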
# Setaria spp. [7] = experiment: preemergence treatment in the greenhouse, % damage; assay type: in vivo; conditions: 1.0 kg/ha
# Outline: as §3
# Alopec. myosur. [8] = experiment: preemergence treatment in the greenhouse, % damage; assay type: in vivo; conditions: 1.0 kg/ha
# Outline: as §3
# Solanum nigrum = experiment: preemergence treatment in the greenhouse, % damage; assay type: in vivo
# Outline: as §3
# Bromus spp. = experiment: preemergence treatment in the greenhouse, % damage; assay type: in vivo
# Outline: as §3
# Brassica napus [9] = experiment: preemergence treatment in the greenhouse, % damage; assay type: in vivo; conditions: 1.0 kg/ha
# Outline: as §3
# Matric. spp. [10] = experiment: preemergence treatment in the greenhouse, % damage; assay type: in vivo; conditions: 1.0 kg/ha
# Outline: as §3
# Glyc. max [11] = experiment: preemergence application in the open, % damage; assay type: in vivo, Glycine max
# Experimental: (§4) The experiments were carried out on small plots. The soil was a sandy loam having a pH of from 5 to 6 and containing from 1 to 1.5% humus. The treatment was preemergence, the active ingredients being applied immediately or at the latest 3 days after sowing. The crop plants were sown in rows. The weed flora was made up of the most widely varying species and was natural; the weed flora depended on the time of the year and in part on the crop (e.g., spring-germinating, summer-germinating). The substances were emulsified or suspended in water as the vehicle, and applied by means of a motor-driven plot spray mounted on a hitch. When no rain fell, the plots were watered to ensure germination and growth of the crop plants and weeds. All the experiments were run for several weeks. Over this period, assessments were made at certain intervals on the 0 to 100 scale.
# Cyper. escul. = experiment: postemergence application in the greenhouse, % damage; assay type: in vivo, Cyperus esculentus
# Excerpt: as §1, §2
# Stell. med. = experiment: as above; assay type: in vivo
# Excerpt: as §1, §2
# Setaria spp. [12] = experiment: as above; assay type: in vivo
# Excerpt: as §1, §2
# Chrys. seget. [13] = experiment: as above; assay type: in vivo
# Excerpt: as §1, §2
# Alopec. myosur. [14] = experiment: as above; assay type: in vivo
# Excerpt: as §1, §2
# Avena fat. = experiment: as above; assay type: in vivo
# Excerpt: as §1, §2
# Matric. spp. [15] = experiment: as above; assay type: in vivo
# Excerpt: as §1, §2
# Echin. c.g. [16] = experiment: preemergence application in the open, % damage; assay type: in vivo
# Experimental: as §4
# Amar. retro. [17] = experiment: preemergence application in the open, % damage; assay type: in vivo
# Experimental: as §4
# Alopec. myosur. [18] = experiment: preemergence application in the open, % damage; assay type: in vivo; conditions: 2.0 kg/ha
# Experimental: as §4
# Lamium spp. = experiment: preemergence application in the open, % damage; assay type: in vivo; conditions: 2.0 kg/ha
# Experimental: as §4
# Chenop. spp. = experiment: preemergence application in the open, % damage; assay type: in vivo
# Experimental: as §4
# Anth./Matric. = experiment: preemergence application in the open, % damage; assay type: in vivo; conditions: 2.0 kg/ha
# Experimental: as §4
# Galins. spp. = experiment: preemergence application in the open, % damage; assay type: in vivo
# Experimental: as §4
# Stellaria media = experiment: preemergence application in the open, % damage; assay type: in vivo; conditions: 2.0 kg/ha
# Experimental: as §4
# Brassica napus [19] = experiment: preemergence application in the open, % damage; assay type: in vivo; conditions: 2.0 kg/ha
# Experimental: as §4
# Euph. gen. = experiment: preemergence treatment in the greenhouse, % damage; assay type: in vivo; conditions: 0.25 kg/ha
# Outline: as §3
# Sorgh. halep. = experiment: preemergence treatment in the greenhouse, % damage; assay type: in vivo
# Outline: as §3
# Amar. retro. [20] = experiment: preemergence treatment in the greenhouse, % damage; assay type: in vivo; conditions: one value printed for two rates (0.125 0.25 kg/ha)
# Outline: as §3
# Chrys. seget. [21] = experiment: preemergence treatment in the greenhouse, % damage; assay type: in vivo; conditions: 0.25 kg/ha
# Outline: as §3
# Poa annua = experiment: preemergence treatment in the greenhouse, % damage; assay type: in vivo
# Outline: as §3
smiles,measurement,setting,value
Cc1cccc(C)c1N(Cn1cncn1)C(=O)CCl [Compound 127],% damage,"Arach. hypog. [1]; 0,5 kg/ha",0%
same,% damage,"Arach. hypog. [1]; 1,0 kg/ha",0%
same,% damage,"Arach. hypog. [1]; 2,0 kg/ha",10%
same,% damage,"Brassica napus [2]; 0,5 kg/ha",0%
same,% damage,"Brassica napus [2]; 1,0 kg/ha",0%
same,% damage,"Brassica napus [2]; 2,0 kg/ha",0%
same,% damage,"Glyc. max [3]; 0,5 kg/ha",0%
same,% damage,"Glyc. max [3]; 1,0 kg/ha",0%
same,% damage,"Glyc. max [3]; 2,0 kg/ha",0%
same,% damage,"Carth. tinct.; 0,5 kg/ha",0%
same,% damage,"Carth. tinct.; 1,0 kg/ha",0%
same,% damage,"Solan. nigrum.; 0,5 kg/ha",70%
same,% damage,"Solan. nigrum.; 1,0 kg/ha",90%
same,% damage,"Solan. nigrum.; 2,0 kg/ha",100%
same,% damage,"Amar. retro. [4]; 0,5 kg/ha",82%
same,% damage,"Amar. retro. [4]; 1,0 kg/ha",95%
same,% damage,"Amar. retro. [4]; 2,0 kg/ha",100%
same,% damage,"Seta. spp.; 0,5 kg/ha",95%
same,% damage,"Seta. spp.; 1,0 kg/ha",100%
same,% damage,"Seta. spp.; 2,0 kg/ha",100%
Cc1ncn(CN(C(=O)CCl)c2c(C)cccc2C)n1,% damage,Arach. hypog. [5],0%
same,% damage,Cyp. diff.; 1.0 kg/ha,100%
same,% damage,Echin. c.g. [6],100%
same,% damage,Setaria spp. [7],100%
same,% damage,Alopec. myosur. [8],97%
same,% damage,Solanum nigrum; 1.0 kg/ha,100%
same,% damage,Bromus spp.; 1.0 kg/ha,98%
same,% damage,Brassica napus [9],5%
same,% damage,Matric. spp. [10],92%
Cc1cccc(C)c1N(Cn1cccn1)C(=O)CCl [Compound 5],% damage,"Glyc. max [11]; 0,5 kg/ha",0%
same,% damage,"Glyc. max [11]; 1,0 kg/ha",4%
same,% damage,Cyper. escul.; 1.0 kg/ha,70%
same,% damage,Cyper. escul.; 2.0 kg/ha,72%
same,% damage,Stell. med.; 1.0 kg/ha,95%
same,% damage,Stell. med.; 2.0 kg/ha,98%
same,% damage,Setaria spp. [12]; 1.0 kg/ha,82%
same,% damage,Setaria spp. [12]; 2.0 kg/ha,85%
same,% damage,Chrys. seget. [13]; 1.0 kg/ha,98%
same,% damage,Chrys. seget. [13]; 2.0 kg/ha,98%
same,% damage,Alopec. myosur. [14]; 1.0 kg/ha,80%
same,% damage,Alopec. myosur. [14]; 2.0 kg/ha,90%
same,% damage,Avena fat.; 1.0 kg/ha,90%
same,% damage,Avena fat.; 2.0 kg/ha,92%
same,% damage,Matric. spp. [15]; 1.0 kg/ha,95%
same,% damage,Matric. spp. [15]; 2.0 kg/ha,95%
same,% damage,"Echin. c.g. [16]; 0,5 kg/ha",100%
same,% damage,"Echin. c.g. [16]; 1,0 kg/ha",100%
same,% damage,"Amar. retro. [17]; 0,5 kg/ha",100%
same,% damage,"Amar. retro. [17]; 1,0 kg/ha",100%
same,% damage,Alopec. myosur. [18],95%
same,% damage,Lamium spp.,100%
same,% damage,"Chenop. spp.; 0,5 kg/ha",69%
same,% damage,"Chenop. spp.; 1,0 kg/ha",85%
same,% damage,Anth./Matric.,100%
same,% damage,"Galins. spp.; 0,5 kg/ha",91%
same,% damage,"Galins. spp.; 1,0 kg/ha",100%
same,% damage,Stellaria media,100%
same,% damage,Brassica napus [19],7.5%
same,% damage,Euph. gen.,100%
same,% damage,Sorgh. halep.; 0.125 kg/ha,95%
same,% damage,Sorgh. halep.; 0.25 kg/ha,95%
same,% damage,Cyp. diff.; 0.125 kg/ha,100%
same,% damage,Cyp. diff.; 0.25 kg/ha,100%
same,% damage,Amar. retro. [20],100%
same,% damage,Chrys. seget. [21],100%
same,% damage,Solanum nigrum; 0.25 kg/ha,100%
same,% damage,Poa annua; 0.125 kg/ha,100%
same,% damage,Poa annua; 0.25 kg/ha,100%
same,% damage,Bromus spp.; 0.125 kg/ha,90%
same,% damage,Bromus spp.; 0.25 kg/ha,95%
